Drawing on ChEMBL document CHEMBL1146082, “Development of a structural model for NF-kappaB inhibition of sesquiterpene lactones using self-organizing neural networks” (J Med Chem, 2006), this text covers IC100 for 53 compounds.

This assay deals with Transcription factor p65 (Homo sapiens) (UniProt Q04206). Kind of assay: Inhibition of NF-kappaB DNA binding by EMSA.
Chain of Transcription factor p65 (Homo sapiens) (Q04206 whole entry): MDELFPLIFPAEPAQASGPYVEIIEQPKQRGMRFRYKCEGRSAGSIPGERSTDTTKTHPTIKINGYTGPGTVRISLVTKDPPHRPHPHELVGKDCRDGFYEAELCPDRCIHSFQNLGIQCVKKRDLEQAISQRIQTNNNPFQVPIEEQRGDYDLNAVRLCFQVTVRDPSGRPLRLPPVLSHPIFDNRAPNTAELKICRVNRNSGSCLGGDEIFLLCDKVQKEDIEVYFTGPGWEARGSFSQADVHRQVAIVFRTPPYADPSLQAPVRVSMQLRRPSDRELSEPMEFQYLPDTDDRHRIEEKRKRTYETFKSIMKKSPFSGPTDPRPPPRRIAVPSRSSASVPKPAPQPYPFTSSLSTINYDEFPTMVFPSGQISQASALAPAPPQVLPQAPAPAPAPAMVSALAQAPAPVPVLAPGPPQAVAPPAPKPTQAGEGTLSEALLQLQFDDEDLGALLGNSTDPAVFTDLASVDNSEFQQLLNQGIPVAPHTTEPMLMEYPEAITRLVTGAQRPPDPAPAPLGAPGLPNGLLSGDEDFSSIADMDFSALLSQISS

As to `C=C1C(=O)C[C@H]2C(=C)C(=O)O[C@@H]2/C=C(\COC(=O)C(C)C)CC[C@@H]1OC`, the IC100 came out at 25 µM.

`C=C1C(=O)O[C@@H]2/C=C(/CO)[C@@]3(O)C[C@@H](O)[C@@](C)(C[C@@H](OC(=O)/C(C)=C\C)[C@@H]12)O3` showed an IC100 of 20 µM.

As for `C=C1C(=O)O[C@@H]2[C@H]3C(C)=CC(=O)C3=C(C)C[C@@H](OC(=O)[C@]3(C)O[C@@H]3C)[C@@H]12`, the IC100 worked out at 20 µM.

`C=C1[C@@H]2[C@H]3OC(=O)C(=C)[C@@H]3CC[C@](C)(O)[C@@H]2C[C@@H]1O`: the IC100 worked out at 200 µM.

`C=C(C)C(=O)O[C@H]1[C@@H]2[C@H](C)C(=O)O[C@@H]2C[C@@H](C)[C@@H]2C=CC(=O)[C@]21C` gave an IC100 of 100 µM.

Compound `C=C1[C@H](O)C[C@H](O)[C@]2(C)CC[C@H]3C(=C)C(=O)O[C@@H]3[C@@H]12` had an IC100 of 100 µM.

For the compound `C=C1C(=O)O[C@H]2C/C(CO)=C/CC/C(COC(=O)C(C)CO)=C/C[C@H]12` (stereo partly drawn), the IC100 was 100 µM.

Consider `C=C1C(=O)O[C@@H]2C[C@@H](C)[C@@H]3[C@@H](OC(C)=O)C[C@@H](O)[C@@]3(C)[C@@H](O)[C@H]12`, for which the IC100 turned out to be 200 µM.

Regarding `C=C1C(=O)O[C@@H]2[C@H]3C(C)=CC[C@H]3[C@](C)(O)C[C@H](O)[C@@H]12`, the IC100 was 100 µM.

`C=C(C)C(=O)O[C@H]1[C@H]2C(=C)C(=O)O[C@@H]2/C=C(\C)CC/C=C(/C=O)[C@@H]1O` came in with an IC100 of 10 µM.

On to `C=C1C(=O)O[C@@H]2/C=C(/C)[C@]3(O)O[C@](C)(C[C@@H](OC(=O)/C(C)=C\C)[C@@H]12)C[C@@H]3O`, for which the IC100 turned out to be 50 µM.

The compound `C=C1C(=O)O[C@@H]2C3O[C@]3(C)CC/C=C(\C)CC[C@@H]12` (stereo partly drawn) returned an IC100 of 20 µM.

Turning to `C=C1C(=O)O[C@H]2C3=C(C(=O)C[C@@H]3C)[C@@H](C)CC[C@@H]12`, the IC100 stood at 20 µM.

On to `C=C(C)C(=O)O[C@@H]1/C=C(\C=O)CCC[C@@]2(CO2)[C@H](O)[C@H]2OC(=O)C(=C)[C@@H]21`, for which the IC100 worked out at 5 µM.

`C=C1C(=O)O[C@H]2[C@H]1[C@@H](OC(=O)/C(C)=C/C)C/C(C)=C/C(=O)/C=C(/C)[C@@H]2O` registered an IC100 of 10 µM.

`C=C1C(=O)C=C2[C@H]1C[C@@H]1C(=C)C(=O)O[C@@H]1C[C@@H]2C`: the IC100 amounted to 10 µM.

Regarding `C=C1C(=O)O[C@H]2C/C(CO)=C/CC/C(COC(=O)C(C)CC)=C/C[C@H]12` (stereo partly drawn), the IC100 came to 50 µM.

Compound `C=C1[C@H](O)C[C@@H](O)[C@]2(C)CC[C@H]3C(=C)C(=O)O[C@@H]3[C@@H]12` yielded an IC100 of 200 µM.

`C=C1C(=O)O[C@@H]2/C=C(\COC(=O)C(C)C)CC/C=C(\CO)[C@H](O)C[C@@H]12`: the IC100 was determined as 100 µM.

The compound `C=C(C)C(=O)O[C@@H]1/C=C(/C=O)CCCC(=C)[C@H](O)[C@H]2OC(=O)C(=C)[C@@H]21` came in with an IC100 of 5 µM.

`C=C1C(=O)O[C@@H]2[C@H]3C(C)=CC(=O)C3=C(C)CC[C@@H]12`: the IC100 is 50 µM.

`C=C1C(=O)C[C@H]2C(=C)C(=O)O[C@@H]2/C=C(\COC(=O)C(C)C)CC[C@H]1OC`: the IC100 came to 25 µM.

`C=C1C(=O)O[C@@H]2C[C@H](C)C3=C(C[C@H]12)[C@@H](C)CC3=O` gave an IC100 of 20 µM.

In the case of `C=C1C(=O)O[C@@H]2C[C@@]3(C)[C@H](O)CC[C@@](O)(COC(=O)C(C)C)[C@@H]3C[C@H]12`, the IC100 came to 200 µM.

`C=C(C)C(=O)O[C@@H]1/C=C(\C=O)CCCC(=C)[C@H](O)[C@H]2OC(=O)C(=C)[C@@H]21`: the IC100 amounted to 10 µM.

Turning to `C/C=C(\C)C(=O)O[C@H]1[C@@H]2[C@H](C)C(=O)O[C@@H]2C[C@@H](C)[C@@H]2C=CC(=O)[C@]21C`, the IC100 amounted to 100 µM.

The compound `C=C1C(=O)O[C@H]2C[C@]3(C)O[C@@H]3C[C@@H](OC(C)=O)C3=C[C@@H](OC3=O)[C@H]12` yielded an IC100 of 10 µM.

`C=C1C(=O)O[C@H]2/C=C(\C)CC/C=C(\C)[C@@H](OC(=O)/C(C)=C/C)[C@H](O)[C@@H]12` had an IC100 of 100 µM.

`C=C(CO)C(=O)OC/C1=C\C[C@@H]2C(=C)C(=O)O[C@H]2C/C(COC(C)=O)=C/CC1` gave an IC100 of 50 µM.

Compound `C=C[C@]1(C)CC[C@H]2C(=C)C(=O)O[C@@H]2[C@H]1C(=C)C` came in with an IC100 of 100 µM.

In the case of `C=C1C(=O)O[C@H]2/C=C(\C)CC/C=C(/C)C(=O)[C@H](OC(=O)[C@@]3(C)O[C@H]3C)[C@@H]12`, the IC100 is 50 µM.

Regarding `C=C(C)C(=O)O[C@H]1[C@H]2C(=C)C(=O)O[C@@H]2[C@@H](O)[C@@]2(CC/C=C(/C=O)[C@@H]1OC(C)=O)CO2`, the IC100 worked out at 5 µM.

Compound `C=C(C)C(=O)O[C@H]1[C@H]2C(=C)C(=O)O[C@@H]2[C@@H](O)C(=C)CC/C=C(/C=O)[C@@H]1OC` came in with an IC100 of 50 µM.

Regarding `C=C1C(=O)O[C@H]2[C@H]1[C@@H](OC(=O)/C(C)=C/C)C/C(C)=C\[C@@]1(OC)C=C(C)[C@@H]2O1`, the IC100 is 10 µM.

`C=C1C(=O)O[C@@H]2[C@H]3C(CO)=CC(=O)C3=C(C)CC[C@@H]12`: the IC100 amounted to 50 µM.

Consider `C=C1C(=O)O[C@@H]2C[C@@]3(C)CC(=O)C(OC(C)=O)=C(C)C3C[C@H]12` (stereo partly drawn), for which the IC100 amounted to 100 µM.

`C=C1C(=O)O[C@@H]2C[C@@]3(C)[C@H](O)CC[C@](O)(COC(=O)C(C)C)[C@@H]3C[C@H]12` had an IC100 of 200 µM.

The compound `C=C1C(=O)O[C@@H]2/C=C(/C)C3=CC(=O)[C@@](C)(C[C@@H](OC(=O)/C(C)=C\C)[C@@H]12)O3` returned an IC100 of 5 µM.

Consider `C=C1C(=O)O[C@@H]2[C@H]3C(C)=CC[C@H](O)[C@]3(C)CC[C@@H]12`, for which the IC100 was 300 µM.

Consider `C=C(C)C(=O)O[C@@H]1[C@@H]2C(=C)C(=O)O[C@@H]2C[C@@H](C)[C@@H]2C=CC(=O)[C@@]12C`, for which the IC100 worked out at 5 µM.

`C=C1C(=O)O[C@]23C[C@H]1CCC(CO)=C2C(=O)C=C3C`: the IC100 was determined as 50 µM.

For the compound `C=C1C(=O)O[C@]23C[C@H]1CCC(COC(C)=O)=C2C(=O)C=C3C`, the IC100 is 100 µM.

The compound `C=C1C(=O)O[C@@H]2/C=C(/CO)C3=CC(=O)[C@@](C)(C[C@H](OC(=O)/C(C)=C\C)[C@@H]12)O3` displayed an IC100 of 5 µM.

In the case of `C=C1[C@@H]2[C@H]3OC(=O)C(=C)[C@@H]3CCC(=C)[C@@H]2C[C@@H]1OC(C)=O`, the IC100 was 100 µM.

Regarding `C=C1C(=O)O[C@@H]2/C=C(\C)[C@H](OC(C)=O)C/C=C(/C)CC[C@@H]12`, the IC100 was 50 µM.

In the case of `C=C1C(=O)O[C@@H]2C[C@@]3(C)[C@H](O)CC=C(COC(=O)C(C)C)[C@@H]3C[C@H]12`, the IC100 worked out at 50 µM.

Take `C=C1C(=O)O[C@H]2C[C@@H](C)[C@@H]3C=CC(=O)[C@@]3(C)[C@H](O)[C@H]12`: the IC100 was determined as 20 µM.

`C=C(C)C(=O)O[C@H]1C[C@@]2(C)OC(=CC2=O)/C(CO)=C\[C@H]2OC(=O)C(=C)[C@H]12`: the IC100 came to 20 µM.

Regarding `CC[C@@H](C)[C@@]1(O)O[C@H]2C[C@@]3(C)OC(=CC3=O)/C(CO)=C\[C@H]3OC(=O)[C@@]1(C)C23` (stereo partly drawn), the IC100 came out at 100 µM.

In turn, `C=C1C(=O)O[C@@H]2C[C@@H](C)[C@@H]3C=CC(=O)[C@@]3(C)[C@@H](OC(=O)C(C)C)[C@H]12` registered an IC100 of 20 µM.

In the case of `C=C1C(=O)O[C@H]2C/C(CO)=C/CC/C(COC(=O)C(C)C(C)O)=C/C[C@H]12` (stereo partly drawn), the IC100 amounted to 50 µM.

Compound `C=C1C(=O)O[C@@H]2[C@H]3C(C)=C(Cl)C(=O)C3=C(C)CC[C@@H]12` gave an IC100 of 20 µM.

`C=C1C(=O)O[C@@H]2[C@H]3C(C)=CC[C@H]3[C@](C)(O)C[C@H](OC(C)=O)[C@@H]12` yielded an IC100 of 20 µM.
